From patent publication US8580769B2, “Treatment of obesity, metabolic syndrome, and diabetes with protein kinase C inhibitors” (The United States of America as represented by the …, priority 2011, dated 2013)

Legend:
[1] = tested on: aPKC immunoprecipitated from tissues previously stimulated by insulin; assay: fully-activated aPKC immunoprecipitated from insulin-stimulated tissues; format: biochemical
Method: aPKCι Assays: aPKC enzyme activity was measured as previously described (Standaert et al., J. Biol. Chem. 279:24929-24934, 2004; Sajan et al., J. Lipid Res. 50:1133-1145, 2009; Sajan et al., Diabetologia 52:1197-1207, 2009; Farese et al., J. Clin. Invest. 117:2289-2301, 2007). […] After incubation, ^32P-labeled substrate was trapped on P-81 filter paper and counted. […]

PKC-ζ = target: T1, PKC-ζ (Homo sapiens, UniProt Q05513); assay: PKC-ζ inhibition; format: biochemical
T1 construct: purchased Biovision, Mountain View, Calif
T1 sequence (Q05513 1-592): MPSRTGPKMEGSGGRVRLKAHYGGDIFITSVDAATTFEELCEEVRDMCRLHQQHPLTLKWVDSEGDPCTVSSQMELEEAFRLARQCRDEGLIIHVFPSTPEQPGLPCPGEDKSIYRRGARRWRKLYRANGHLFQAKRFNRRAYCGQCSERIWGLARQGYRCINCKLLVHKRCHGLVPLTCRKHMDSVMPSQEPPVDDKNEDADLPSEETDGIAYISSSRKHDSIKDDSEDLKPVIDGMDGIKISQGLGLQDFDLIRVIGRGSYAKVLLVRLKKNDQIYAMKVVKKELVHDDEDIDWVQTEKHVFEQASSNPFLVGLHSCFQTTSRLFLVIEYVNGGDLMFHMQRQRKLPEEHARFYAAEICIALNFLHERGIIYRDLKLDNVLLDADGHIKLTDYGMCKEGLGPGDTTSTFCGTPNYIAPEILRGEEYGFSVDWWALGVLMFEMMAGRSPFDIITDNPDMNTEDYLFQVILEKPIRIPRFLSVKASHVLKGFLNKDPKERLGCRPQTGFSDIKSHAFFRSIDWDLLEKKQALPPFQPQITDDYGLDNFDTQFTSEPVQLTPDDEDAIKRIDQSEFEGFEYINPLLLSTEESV
Method: For assays of recombinant PKC-ι and PKC-ζ (10 ng/assay; Biovision, Mountain View, Calif.), […] phosphatidylinositol-3,4,5-(PO4)3 (PIP3; Matreya, Pleasant Gap, Pa.) ±1 ng phosphoinositide-dependent kinase-1 (PDK1; Upstate Cell Signaling) was added to maximally activate and thus better define aPKC activity.

Structure (SMILES): O=C([O-])CC([S][Au])C(=O)[O-] (centres unmarked) [ATM, aurothiomalate, reference compound]
- inhibition of fully-activated aPKC immunoprecipitated from tissues previously stimulated by insulin [1]: did not inhibit

Structure (SMILES): NC(=O)c1ncn([C@@H]2C[C@H](COP(=O)(O)O)[C@@H](O)[C@H]2O)c1N [ICAPP, 1H-imidazole-4-carboxamide, 5-amino-1-[2,3-dihydroxy-4-[(phosphonooxy)methyl]cyclopentyl]-[1R-(1α,2β,3β,4α)]]
- inhibition of PKC-ζ (PKC-ζ): not inhibited
